# Data: patent publication US9446039B2, “Aminoheteroaryl compounds as MTH1 inhibitors” (CEMM—FORSCHUNGSZENTRUM FÜR MOLEKULARE MEDIZIN GMBH, priority 2012, dated 2016)
# Experiments:
# Assay type in all cases: binding
# [1] = molecular target: SW480 colon carcinoma cells lysate proteins (Homo sapiens, UniProt Q01518); settings: PreyGene CAP1
# [2] = molecular target: SW480 colon carcinoma cells lysate proteins (Homo sapiens, UniProt P83731); settings: PreyGene RPL24; SW480 cells
# [3] = molecular target: T1, SW480 colon carcinoma cells lysate proteins (Homo sapiens, UniProt P68104); settings: PreyGene EEF1A1; SW480 cells
# T1 sequence (P68104 1-462): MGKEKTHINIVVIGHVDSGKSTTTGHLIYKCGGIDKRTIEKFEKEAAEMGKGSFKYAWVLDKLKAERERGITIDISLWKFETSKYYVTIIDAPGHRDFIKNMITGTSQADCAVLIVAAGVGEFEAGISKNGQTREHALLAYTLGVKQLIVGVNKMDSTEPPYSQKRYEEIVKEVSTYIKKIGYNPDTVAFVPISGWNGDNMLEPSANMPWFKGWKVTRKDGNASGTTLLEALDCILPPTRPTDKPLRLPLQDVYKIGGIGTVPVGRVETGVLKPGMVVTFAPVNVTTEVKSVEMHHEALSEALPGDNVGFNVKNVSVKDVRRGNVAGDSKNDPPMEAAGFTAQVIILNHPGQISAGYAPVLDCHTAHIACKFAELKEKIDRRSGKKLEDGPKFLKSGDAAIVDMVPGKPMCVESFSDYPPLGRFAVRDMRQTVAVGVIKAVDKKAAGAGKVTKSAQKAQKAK
# [4] = molecular target: T2, SW480 colon carcinoma cells lysate proteins (Homo sapiens, UniProt P22314); settings: PreyGene UBA1
# T2 sequence (P22314 1-1058): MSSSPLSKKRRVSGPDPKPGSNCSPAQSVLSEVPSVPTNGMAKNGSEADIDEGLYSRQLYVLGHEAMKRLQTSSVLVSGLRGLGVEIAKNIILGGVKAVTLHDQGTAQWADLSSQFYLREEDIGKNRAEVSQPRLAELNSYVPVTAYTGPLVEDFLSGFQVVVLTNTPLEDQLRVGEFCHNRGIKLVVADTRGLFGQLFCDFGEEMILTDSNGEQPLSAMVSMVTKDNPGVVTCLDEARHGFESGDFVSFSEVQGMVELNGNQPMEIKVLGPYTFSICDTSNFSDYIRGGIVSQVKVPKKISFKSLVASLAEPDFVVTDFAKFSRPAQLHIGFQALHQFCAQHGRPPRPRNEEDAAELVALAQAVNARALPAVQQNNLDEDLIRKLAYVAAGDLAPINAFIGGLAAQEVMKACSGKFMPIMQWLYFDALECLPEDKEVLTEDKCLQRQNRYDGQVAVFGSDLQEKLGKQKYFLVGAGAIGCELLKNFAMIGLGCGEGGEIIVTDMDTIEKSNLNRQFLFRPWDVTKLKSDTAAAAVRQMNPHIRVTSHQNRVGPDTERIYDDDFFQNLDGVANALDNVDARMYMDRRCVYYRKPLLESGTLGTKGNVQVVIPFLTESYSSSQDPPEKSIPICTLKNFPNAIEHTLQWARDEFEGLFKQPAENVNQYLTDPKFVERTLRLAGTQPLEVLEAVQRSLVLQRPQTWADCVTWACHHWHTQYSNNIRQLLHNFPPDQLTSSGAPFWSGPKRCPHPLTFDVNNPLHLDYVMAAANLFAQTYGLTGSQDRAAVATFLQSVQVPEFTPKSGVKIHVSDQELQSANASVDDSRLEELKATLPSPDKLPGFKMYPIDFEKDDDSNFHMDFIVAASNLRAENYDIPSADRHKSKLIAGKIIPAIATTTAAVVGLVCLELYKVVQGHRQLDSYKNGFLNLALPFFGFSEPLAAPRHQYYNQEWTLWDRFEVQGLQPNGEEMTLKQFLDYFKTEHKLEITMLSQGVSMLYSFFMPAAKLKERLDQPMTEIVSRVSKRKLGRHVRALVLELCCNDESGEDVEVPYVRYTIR
# [5] = molecular target: T3, SW480 colon carcinoma cells lysate proteins (Homo sapiens, UniProt Q15758); settings: PreyGene SLC1A5
# T3 sequence (Q15758 1-541): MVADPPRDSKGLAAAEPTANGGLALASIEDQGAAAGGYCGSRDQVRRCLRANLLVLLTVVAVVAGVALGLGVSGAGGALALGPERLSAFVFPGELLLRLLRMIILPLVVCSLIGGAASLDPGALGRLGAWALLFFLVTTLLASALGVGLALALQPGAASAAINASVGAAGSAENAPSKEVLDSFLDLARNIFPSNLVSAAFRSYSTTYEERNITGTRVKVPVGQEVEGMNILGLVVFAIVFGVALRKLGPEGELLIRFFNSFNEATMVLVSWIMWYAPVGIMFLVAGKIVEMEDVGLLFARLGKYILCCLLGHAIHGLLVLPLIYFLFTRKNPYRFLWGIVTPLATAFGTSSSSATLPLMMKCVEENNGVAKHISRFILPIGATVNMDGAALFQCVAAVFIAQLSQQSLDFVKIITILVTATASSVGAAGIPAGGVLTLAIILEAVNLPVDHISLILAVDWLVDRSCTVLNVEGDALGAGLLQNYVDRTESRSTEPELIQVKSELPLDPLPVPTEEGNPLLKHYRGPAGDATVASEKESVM
# Sequence of SW480 colon carcinoma cells lysate proteins (Homo sapiens, UniProt Q01518) (Q01518 whole entry): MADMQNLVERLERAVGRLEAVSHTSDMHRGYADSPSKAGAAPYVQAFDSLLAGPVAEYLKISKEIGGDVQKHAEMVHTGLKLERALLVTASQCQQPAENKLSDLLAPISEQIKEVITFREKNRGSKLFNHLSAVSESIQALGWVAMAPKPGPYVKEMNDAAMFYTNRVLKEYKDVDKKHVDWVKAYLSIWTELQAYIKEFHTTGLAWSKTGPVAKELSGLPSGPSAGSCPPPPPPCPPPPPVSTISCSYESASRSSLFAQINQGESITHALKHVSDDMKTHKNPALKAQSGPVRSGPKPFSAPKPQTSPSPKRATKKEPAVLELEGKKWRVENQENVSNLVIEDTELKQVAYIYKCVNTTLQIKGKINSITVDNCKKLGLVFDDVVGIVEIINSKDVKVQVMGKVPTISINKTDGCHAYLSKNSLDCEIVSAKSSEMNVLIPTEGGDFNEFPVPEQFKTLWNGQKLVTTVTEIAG
smiles,measurement,setting,value
C[C@H](Oc1cc(-c2cnn(C3CCNCC3)c2)cnc1N)c1c(Cl)ccc(F)c1Cl [(5)-crizotinib],AvgP,[1],0.3081
same,SC.Exp. 1-1,[1],3
same,SC.Exp. 1-2,[1],2
same,SC.Exp. 2-1,[1],0
same,SC.Exp. 2-2,[1],0
same,Sum (SC.Exp.),[1],5
same,AvgP,[2],0
same,SC.Exp. 1-1,[2],4
same,SC.Exp. 1-2,[2],4
same,SC.Exp. 2-1,[2],3
same,SC.Exp. 2-2,[2],4
same,SC.Exp. Sum,[2],15
same,AvgP,[3],0
same,SC.Exp. 1-1,[3],23
same,SC.Exp. 1-2,[3],21
same,SC.Exp. 2-1,[3],8
same,SC.Exp. 2-2,[3],8
same,SC.Exp. Sum,[3],60
same,AvgP,[4],0.4997
same,SC.Exp. 1-1,[4],15
same,SC.Exp. 1-2,[4],15
same,SC.Exp. 2-1,[4],0
same,SC.Exp. 2-2,[4],0
same,Sum (SC.Exp.),[4],30
same,AvgP,[5],0.227
same,SC.Exp. 1-1,[5],1
same,SC.Exp. 1-2,[5],0
same,SC.Exp. 2-1,[5],3
same,SC.Exp. 2-2,[5],2
same,Sum (SC.Exp.),[5],6
